Values of other authors, collected in patent US20130287898A1, “Trivalent Chromium and Boron Fortifying Composition, a Hydration Supplement, and Process for Preparing the Same” (priority 2010, published 2013).

What was measured:
[1] = in vivo
[2] = Expert group of vitamins & Minerals, UK - 2003
[3] = humans, 270 mg orally

SMILES: [B] [Boron]
- absorption from the gastrointestinal tract [1]: well absorbed
- excreted through urine [1]: about 90%

SMILES: [Cr] [Chromium]
- Safe Upper level per day [2]: 10 mg

SMILES: OB(O)O [boric acid]
- discomfort / signs of toxicity [3]: no obvious signs of toxicity
